Results published in paper PMC4457528, “Identification of Novel Small Molecule Inhibitors of Oncogenic RET Kinase” (PLoS ONE, 2015).
Where two headings read alike, the source gives them in different places.

Legend:
Experiment in all cases: KinomeScan kinase panel, single concentration 10 µM
Format in all cases: binding
[1] = target: T1, KinomeScan kinase panel (Homo sapiens, UniProt P53671); settings: LIMK2, 10 µM; read-out: score (%)
T1 construct: purchased DiscoveRx (KinomeScan)

[2] = target: T2, KinomeScan kinase panel (Homo sapiens, UniProt P52333); settings: 10 µM, read-out: score (%)
T2 construct: purchased DiscoveRx (KinomeScan)
T2 sequence (P52333 1-1124): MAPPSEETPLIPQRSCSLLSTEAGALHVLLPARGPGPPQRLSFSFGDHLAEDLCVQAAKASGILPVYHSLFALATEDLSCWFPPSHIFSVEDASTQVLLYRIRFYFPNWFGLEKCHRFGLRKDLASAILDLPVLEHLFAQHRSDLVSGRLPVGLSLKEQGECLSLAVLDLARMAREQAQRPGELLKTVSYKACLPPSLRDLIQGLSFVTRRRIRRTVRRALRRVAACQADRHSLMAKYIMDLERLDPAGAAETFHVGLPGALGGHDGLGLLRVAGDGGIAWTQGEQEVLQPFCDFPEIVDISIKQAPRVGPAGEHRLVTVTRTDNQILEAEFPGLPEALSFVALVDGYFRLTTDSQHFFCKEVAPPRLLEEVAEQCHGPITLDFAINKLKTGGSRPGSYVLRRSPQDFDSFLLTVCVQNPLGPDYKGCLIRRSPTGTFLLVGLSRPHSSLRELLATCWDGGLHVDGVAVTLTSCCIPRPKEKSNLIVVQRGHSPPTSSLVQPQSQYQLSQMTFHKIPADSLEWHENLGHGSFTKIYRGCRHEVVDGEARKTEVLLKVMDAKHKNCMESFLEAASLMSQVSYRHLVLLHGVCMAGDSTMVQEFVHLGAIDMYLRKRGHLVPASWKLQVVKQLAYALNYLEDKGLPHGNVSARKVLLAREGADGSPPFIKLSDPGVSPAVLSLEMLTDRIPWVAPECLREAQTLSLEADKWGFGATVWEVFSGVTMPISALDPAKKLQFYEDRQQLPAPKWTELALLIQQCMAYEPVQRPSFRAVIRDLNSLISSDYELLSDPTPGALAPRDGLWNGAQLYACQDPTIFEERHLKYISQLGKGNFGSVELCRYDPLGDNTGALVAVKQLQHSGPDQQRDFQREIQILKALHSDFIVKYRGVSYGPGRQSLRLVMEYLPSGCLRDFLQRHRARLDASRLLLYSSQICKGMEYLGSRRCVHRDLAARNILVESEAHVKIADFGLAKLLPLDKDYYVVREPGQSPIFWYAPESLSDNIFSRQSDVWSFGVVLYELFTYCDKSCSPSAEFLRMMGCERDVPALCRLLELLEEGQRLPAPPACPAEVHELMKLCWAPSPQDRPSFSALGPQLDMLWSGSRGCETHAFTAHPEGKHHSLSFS

[3] = target: T3, KinomeScan kinase panel (Homo sapiens, UniProt P00519, Y253F); settings: 10 µM, read-out: score (%)
T3 construct: purchased DiscoveRx (KinomeScan)

[4] = target: T4, KinomeScan kinase panel (Homo sapiens, UniProt P36507); settings: MEK2, 10 µM; read-out: score (%)
T4 construct: purchased DiscoveRx (KinomeScan)

[5] = target: T5, KinomeScan kinase panel (Homo sapiens, UniProt P21709); settings: EPHA1, 10 µM; read-out: score (%)
T5 construct: purchased DiscoveRx (KinomeScan)
T5 sequence (P21709 26-976): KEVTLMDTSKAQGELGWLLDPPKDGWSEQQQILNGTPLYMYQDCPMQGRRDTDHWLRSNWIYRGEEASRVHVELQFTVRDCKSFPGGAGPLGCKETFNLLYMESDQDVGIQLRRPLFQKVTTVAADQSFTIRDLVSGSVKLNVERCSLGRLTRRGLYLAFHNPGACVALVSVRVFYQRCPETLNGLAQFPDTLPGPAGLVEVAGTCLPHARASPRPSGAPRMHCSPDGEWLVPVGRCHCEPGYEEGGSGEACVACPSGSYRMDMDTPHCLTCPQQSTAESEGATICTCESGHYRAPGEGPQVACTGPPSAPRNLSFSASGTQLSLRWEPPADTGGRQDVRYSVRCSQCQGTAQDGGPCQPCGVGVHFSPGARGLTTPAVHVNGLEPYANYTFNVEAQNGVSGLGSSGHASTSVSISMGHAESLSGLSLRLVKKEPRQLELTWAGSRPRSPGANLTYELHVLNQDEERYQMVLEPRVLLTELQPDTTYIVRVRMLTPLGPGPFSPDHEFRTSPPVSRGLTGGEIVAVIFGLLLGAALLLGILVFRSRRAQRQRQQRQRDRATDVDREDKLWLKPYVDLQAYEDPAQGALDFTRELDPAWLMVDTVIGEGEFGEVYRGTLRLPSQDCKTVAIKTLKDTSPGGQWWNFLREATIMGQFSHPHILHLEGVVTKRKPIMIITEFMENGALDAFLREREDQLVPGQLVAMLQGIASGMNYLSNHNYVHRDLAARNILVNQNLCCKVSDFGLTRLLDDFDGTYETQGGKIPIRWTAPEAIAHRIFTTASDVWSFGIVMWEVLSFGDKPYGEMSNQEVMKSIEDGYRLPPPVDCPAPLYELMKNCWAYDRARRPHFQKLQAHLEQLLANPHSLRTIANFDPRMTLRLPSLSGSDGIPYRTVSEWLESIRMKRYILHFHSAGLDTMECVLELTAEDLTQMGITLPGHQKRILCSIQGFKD

[6] = target: T6, KinomeScan kinase panel (Homo sapiens, UniProt P10721); settings: KIT, 10 µM; read-out: score (%)
T6 construct: purchased DiscoveRx (KinomeScan)

[7] = target: T7, KinomeScan kinase panel (Homo sapiens, UniProt P14616); settings: INSRR, 10 µM; read-out: score (%)
T7 construct: purchased DiscoveRx (KinomeScan)

[8] = target: T8, KinomeScan kinase panel (Homo sapiens, UniProt P04629); settings: 10 µM, read-out: score (%)
T8 construct: purchased DiscoveRx (KinomeScan)
T8 sequence (P04629 33-796): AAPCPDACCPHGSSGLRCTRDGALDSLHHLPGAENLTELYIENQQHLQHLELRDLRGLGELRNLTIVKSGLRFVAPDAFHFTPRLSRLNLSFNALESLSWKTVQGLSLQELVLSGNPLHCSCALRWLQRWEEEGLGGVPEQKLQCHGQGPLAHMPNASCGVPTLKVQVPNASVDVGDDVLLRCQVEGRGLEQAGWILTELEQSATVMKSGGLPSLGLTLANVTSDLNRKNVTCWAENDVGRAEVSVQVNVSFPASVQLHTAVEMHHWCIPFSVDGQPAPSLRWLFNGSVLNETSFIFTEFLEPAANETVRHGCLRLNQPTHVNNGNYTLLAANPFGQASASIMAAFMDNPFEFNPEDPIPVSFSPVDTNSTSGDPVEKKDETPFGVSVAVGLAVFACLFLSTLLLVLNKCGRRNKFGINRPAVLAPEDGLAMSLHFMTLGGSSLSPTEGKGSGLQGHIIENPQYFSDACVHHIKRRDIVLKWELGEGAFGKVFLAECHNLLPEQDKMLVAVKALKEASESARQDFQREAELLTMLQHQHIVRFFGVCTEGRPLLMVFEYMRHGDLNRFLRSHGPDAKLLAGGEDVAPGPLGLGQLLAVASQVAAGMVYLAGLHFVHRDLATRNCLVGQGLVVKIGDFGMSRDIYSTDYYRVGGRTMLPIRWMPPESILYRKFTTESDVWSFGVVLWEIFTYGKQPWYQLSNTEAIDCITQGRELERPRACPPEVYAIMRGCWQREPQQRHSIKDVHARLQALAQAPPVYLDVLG

T1 sequence (P53671 whole entry): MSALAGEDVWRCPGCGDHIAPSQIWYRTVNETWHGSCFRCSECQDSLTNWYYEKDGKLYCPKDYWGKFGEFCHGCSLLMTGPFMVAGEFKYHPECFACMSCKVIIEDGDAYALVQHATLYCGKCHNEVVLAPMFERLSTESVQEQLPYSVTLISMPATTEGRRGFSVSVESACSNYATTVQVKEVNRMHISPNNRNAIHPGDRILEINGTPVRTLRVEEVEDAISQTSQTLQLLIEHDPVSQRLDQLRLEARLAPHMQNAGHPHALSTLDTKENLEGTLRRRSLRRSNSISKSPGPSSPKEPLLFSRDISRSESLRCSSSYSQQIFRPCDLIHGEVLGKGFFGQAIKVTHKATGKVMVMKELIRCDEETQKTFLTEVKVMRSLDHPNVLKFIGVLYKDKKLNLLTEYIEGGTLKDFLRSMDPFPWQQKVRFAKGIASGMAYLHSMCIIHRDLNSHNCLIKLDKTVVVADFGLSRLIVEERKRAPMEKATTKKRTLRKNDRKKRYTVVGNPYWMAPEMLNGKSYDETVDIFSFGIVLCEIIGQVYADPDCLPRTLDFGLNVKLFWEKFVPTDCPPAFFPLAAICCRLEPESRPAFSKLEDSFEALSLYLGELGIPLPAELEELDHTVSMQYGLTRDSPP
T6 sequence (P10721 26-976): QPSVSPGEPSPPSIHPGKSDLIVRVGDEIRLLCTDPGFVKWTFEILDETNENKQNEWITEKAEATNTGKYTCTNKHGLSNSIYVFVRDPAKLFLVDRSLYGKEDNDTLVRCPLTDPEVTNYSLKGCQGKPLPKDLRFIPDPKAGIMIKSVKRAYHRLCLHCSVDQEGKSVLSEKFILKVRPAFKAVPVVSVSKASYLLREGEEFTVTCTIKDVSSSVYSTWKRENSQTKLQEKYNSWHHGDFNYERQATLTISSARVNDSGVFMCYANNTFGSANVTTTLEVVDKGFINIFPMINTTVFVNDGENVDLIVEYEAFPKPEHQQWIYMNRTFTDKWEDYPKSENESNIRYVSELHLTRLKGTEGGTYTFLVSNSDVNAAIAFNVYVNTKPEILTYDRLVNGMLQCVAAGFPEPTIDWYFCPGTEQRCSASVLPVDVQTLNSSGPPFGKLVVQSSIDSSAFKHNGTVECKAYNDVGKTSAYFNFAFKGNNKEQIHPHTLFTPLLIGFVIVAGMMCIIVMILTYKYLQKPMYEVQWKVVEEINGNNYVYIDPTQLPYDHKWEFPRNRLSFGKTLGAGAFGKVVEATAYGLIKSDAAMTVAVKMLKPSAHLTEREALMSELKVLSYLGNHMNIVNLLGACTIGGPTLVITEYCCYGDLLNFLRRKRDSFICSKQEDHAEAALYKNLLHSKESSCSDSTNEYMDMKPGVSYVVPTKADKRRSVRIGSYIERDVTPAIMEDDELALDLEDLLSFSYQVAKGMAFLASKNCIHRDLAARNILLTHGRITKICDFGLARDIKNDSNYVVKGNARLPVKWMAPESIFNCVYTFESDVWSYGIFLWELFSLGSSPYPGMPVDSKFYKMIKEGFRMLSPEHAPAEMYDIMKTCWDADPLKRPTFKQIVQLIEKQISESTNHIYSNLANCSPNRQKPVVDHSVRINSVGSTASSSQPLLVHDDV
T4 sequence (P36507 whole entry): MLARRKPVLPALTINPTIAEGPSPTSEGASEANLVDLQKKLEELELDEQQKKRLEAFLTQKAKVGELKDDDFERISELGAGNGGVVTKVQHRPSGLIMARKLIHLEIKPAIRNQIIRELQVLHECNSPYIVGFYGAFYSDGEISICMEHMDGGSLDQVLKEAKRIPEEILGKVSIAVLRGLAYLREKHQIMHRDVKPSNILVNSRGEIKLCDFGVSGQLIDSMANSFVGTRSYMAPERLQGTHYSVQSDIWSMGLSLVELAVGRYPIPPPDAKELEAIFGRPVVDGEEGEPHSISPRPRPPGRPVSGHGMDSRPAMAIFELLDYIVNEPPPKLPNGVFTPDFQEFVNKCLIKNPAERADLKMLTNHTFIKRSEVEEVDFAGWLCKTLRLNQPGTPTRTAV
T7 sequence (P14616 27-1297): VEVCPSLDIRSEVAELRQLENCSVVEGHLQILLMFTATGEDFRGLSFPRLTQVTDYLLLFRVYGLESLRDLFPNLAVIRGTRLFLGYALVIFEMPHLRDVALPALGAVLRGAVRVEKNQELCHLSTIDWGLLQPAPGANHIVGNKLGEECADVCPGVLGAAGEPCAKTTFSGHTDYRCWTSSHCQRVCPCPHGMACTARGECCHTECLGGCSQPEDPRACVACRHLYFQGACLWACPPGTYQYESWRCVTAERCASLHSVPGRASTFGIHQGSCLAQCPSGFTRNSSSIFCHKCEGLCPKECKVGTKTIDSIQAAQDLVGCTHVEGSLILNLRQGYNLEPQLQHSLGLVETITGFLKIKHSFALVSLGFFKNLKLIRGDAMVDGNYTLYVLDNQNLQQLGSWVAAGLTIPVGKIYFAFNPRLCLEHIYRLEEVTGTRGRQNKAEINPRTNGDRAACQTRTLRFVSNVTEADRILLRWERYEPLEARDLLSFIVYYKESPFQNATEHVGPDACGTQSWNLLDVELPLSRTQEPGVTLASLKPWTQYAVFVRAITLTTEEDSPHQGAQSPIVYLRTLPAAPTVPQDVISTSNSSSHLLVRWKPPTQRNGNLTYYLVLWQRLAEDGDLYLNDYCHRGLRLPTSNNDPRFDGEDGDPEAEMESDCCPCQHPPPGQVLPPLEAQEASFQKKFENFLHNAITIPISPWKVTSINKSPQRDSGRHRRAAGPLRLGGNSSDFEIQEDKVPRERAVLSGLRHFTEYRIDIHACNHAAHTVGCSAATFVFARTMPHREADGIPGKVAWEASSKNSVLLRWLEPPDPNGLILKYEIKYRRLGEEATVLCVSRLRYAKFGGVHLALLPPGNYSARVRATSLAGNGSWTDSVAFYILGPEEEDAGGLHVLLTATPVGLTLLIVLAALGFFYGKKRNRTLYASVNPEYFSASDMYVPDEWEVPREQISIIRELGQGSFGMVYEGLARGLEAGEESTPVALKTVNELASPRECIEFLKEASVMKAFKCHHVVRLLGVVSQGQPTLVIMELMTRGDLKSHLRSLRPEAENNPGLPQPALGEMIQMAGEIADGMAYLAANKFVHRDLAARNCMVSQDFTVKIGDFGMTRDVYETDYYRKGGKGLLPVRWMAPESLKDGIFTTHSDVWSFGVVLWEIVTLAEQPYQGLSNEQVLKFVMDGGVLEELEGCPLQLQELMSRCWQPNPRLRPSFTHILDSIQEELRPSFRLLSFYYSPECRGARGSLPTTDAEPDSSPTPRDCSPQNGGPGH

remaining binding at 10 µM ([2]; JAK3(Kin.Dom.2)) [%] | remaining binding at 10 µM ([8]; TRKA) [%] | Structure (SMILES) | remaining binding at 10 µM [1] [%] | remaining binding at 10 µM ([2]; JAK3(JH1domain-catalytic)) [%] | remaining binding at 10 µM ([3]; ABL1(Y253F)) [%] | remaining binding at 10 µM [4] [%] | remaining binding at 10 µM [5] [%] | remaining binding at 10 µM [6] [%] | remaining binding at 10 µM [7] [%] | remaining binding at 10 µM ([8]; kinase TRKA) [%] | remaining binding at 10 µM ([3]; ABL1(Y253F)-phosphorylated) [%]
 |  | CCN1CCN(Cc2ccc(NC(=O)c3ccc(C)c(NC(=O)c4cncc(-c5cccs5)c4)c3)cc2C(F)(F)F)CC1 [ALW-II-41-27] | 31 | 3.7 | 0.2 | > 30 | 3.8 | 0 | 8.8 | 4.4 | 
3.5 | 8.2 | CCN1CCN(Cc2ccc(NC(=O)c3ccc(C)c(/C=C/c4cnc5[nH]ccc5c4Cl)c3)cc2C(F)(F)F)CC1 [HG-6-63-01, (E)-3-(2-(4-chloro-1H-pyrrolo[2,3-b]pyridin-5-yl)vinyl)-N-(4-((4-ethylpiperazin-1-yl)methyl)-3-(trifluoromethyl)phenyl)-4-methylbenzamide] | 6.6 |  | 0.1 | > 30 | 5.5 | 0 | > 30 |  | 
 |  | CCN1CCN(Cc2ccc(NC(=O)c3ccc(C)c(C#Cc4cccnc4)c3)cc2C(F)(F)F)CC1 [XMD15-44] | 11 | 2.3 |  | > 30 | 1.2 | 0 | > 30 | 0.35 | 0.15
